Read-outs that look alike come from different tables or passages of the source.
Tests used:
[1] = Serum DNase I activity (ORG590), MIA PaCa-2 model; format: in vivo, BALB/c nude mice; details: day 35, regimen per Table 3 (rhDNaseI protein 50 mg/kg, Group 6)
Procedure: Serum DNase I activity was measured using ORG590 (Orgentec) according to the manufacturer's protocol. Detection was performed using microplate photometer (Multiscan FC) at 450 nm with a correction wavelength of 620 nm. cfDNA in the liver tissue was quantified by immunohistochemistry (IHC) in liver paraffin slides using AC-30-10 mouse IgG DNA binding antibodies (Sigma) as primary antibodies and Novolink Polymer Detection Systems Novocastra (Leica Biosystems).

[2] = tested on: cfDNA in the liver tissue; experiment: cfDNA in liver tissue by immunohistochemistry, MIA PaCa-2 model; format: in vivo, BALB/c nude mice; details: day 35; vector given with gemcitabine (Group 2); gemcitabine alone (Group 7)
Procedure: Detection was performed using microplate photometer (Multiscan FC) at 450 nm with a correction wavelength of 620 nm. cfDNA in the liver tissue was quantified by immunohistochemistry (IHC) in liver paraffin slides using AC-30-10 mouse IgG DNA binding antibodies (Sigma) as primary antibodies and Novolink Polymer Detection Systems Novocastra (Leica Biosystems).

[3] = tested on: MIA PaCa-2 xenografts; details: vector 1.00 × 10^11 GC/kg IV single dose (Groups 2, 3), Gemcitabine 60 mg/kg IP BIW
Procedure: 56 female BALB/c nude mice (IBCH RAN) of 6-8 weeks age and 18-22 g weight were used in experiment. The mice were kept in individual ventilation cages at controlled temperature and humidity with four animals in each cage. Each mouse was inoculated subcutaneously at the right flank with MIA PaCa-2 pancreatic tumor cells (1×10^7) in 0.2 ml of PBS supplemented with BD Matrigel (1:1) for tumor development. The treatments were started on day 17 after tumor inoculation when the average tumor size reached approximately 170 mm^3. Each group consisted of eight tumor-bearing mice.
Tumor size was measured twice weekly in two dimensions using a caliper, and the volume was expressed in mm^3 using the formula: V=0.5 a×b^2 where a and b are the long and short diameters of the tumor, respectively. At the time of routine monitoring, the animals were checked daily for any effects of tumor growth and treatments on normal behavior such as mobility, food and water consumption by visual inspection only, loss or gain of body weight (measured twice weekly), eye/hair matting, and any other abnormal effects. On day 35, the study was terminated, the mice were humanely sacrificed by CO2, and blood was sampled from the central and hepatic veins. Liver tissues were also sampled and immersed into formalin for fixing.

[4] = tested on: Circulating cfDNA; details: day 35; regimen per Table 3 (rhDNaseI protein 50 mg/kg, Group 6)
Procedure: SYBR® Gold Nucleic Acid Gel Stain (Invitrogen) was diluted first at 1:1000 in dimethyl sulphoxide and then at 1:8 in phosphate-buffered saline. 10 μl of plasma samples were applied to 96-well plates. 40 μl of diluted SYBR® Gold was added to each well (final dilution 1:10,000) and fluorescence was measured with a 96 well fluorometer at an emission wavelength of 535 nm and an excitation wavelength of 485 nm.

[5] = tested on: lung carcinoma and hepatoma metastatic disease; details: administered daily at 0.02-2.3 mg/kg; cited from earlier work
[6] = tested on: GVHD; details: mouse, in vivo; cited from earlier work
[7] = tested on: 16S universal bacterial RNA gene; experiment: 16S universal bacterial RNA gene quantification in liver and brain, leaky gut rats; format: in vivo, Wistar rats; details: twice daily IV 50 mg/kg day 7 to day 12
[8] = DNase activity in blood, bacteriophage-induced leaky gut rats; format: in vivo, Wistar rats; details: twice daily IV 50 mg/kg day 7 to day 12
Procedure: At day 7 of phage treatment, rats were randomized into 4 groups as follows: six rats received intrahepatic injection of 1.0×10^12 LVP in a volume of 200 μl; six rats received injection of 1.0×10^12 LVP in a volume of 200 μl into a thigh muscle; six rats received twice daily intravenous injections of recombinant DNase I protein at 50 mg/kg between day 7 and day 12. The remaining six rats were used as the untreated leaky gut control. An additional six healthy rats were used as a healthy control. At day 12, all rats were sacrificed and blood samples were collected for measurement of the DNase activity in blood.
Serum DNase I activity was measured using ORG590 (Orgentec) according to the manufacturer's protocol. Detection was performed using microplate photometer (Multiscan FC) at 450 nm with a correction wavelength of 620 nm.

[9] = tested on: NLRP3; experiment: Brain NLRP3 inflammasome expression by RT-PCR, leaky gut rats; details: twice daily IV 50 mg/kg day 7 to day 12
Procedure: Leaky gut was induced in 24 rats using a bacteriophage cocktail against Enterobacteriaceae, Staphylococcaceae, and Streptococcaceae families so as to induce microbiota diseases. […] Phages (1.5 mL, 1×10^6 plaque-forming units/mL of each phage cocktail) were added to drinking water according to the manufacturer's instruction and administered orally for 10 days. At day 7 of phage treatment, rats were randomized into 4 groups as follows: six rats received intrahepatic injection of 1.0×10^12 LVP in a volume of 200 μl; six rats received injection of 1.0×10^12 LVP in a volume of 200 μl into a thigh muscle; six rats received twice daily intravenous injections of recombinant DNase I protein at 50 mg/kg between day 7 and day 12. The remaining six rats were used as the untreated leaky gut control. An additional six healthy rats were used as a healthy control. […] Brain autopsies were collected to perform NLRP3 inflammasome expression analysis and 16S universal bacterial RNA gene quantification.
NLRP3 expression was assessed by collection of 50 mg cortical tissue samples. RNA was isolated using the SV total RNA isolation system (Promega). Superscript III one-step RT-PCR system with platinum Taq DNA Polymerase (Invitrogen) was used for reverse transcriptase-PCR using 5′-[sequence]-3′ (SEQ ID NO: 11) as forward NLRP3 primer and 5′-[sequence]-3′ (SEQ ID NO: 12) as reverse NLRP3 primer. […]

Nc1ccn([C@@H]2O[C@H](CO)[C@@H](O)C2(F)F)c(=O)n1 [Gemcitabine]
Dnase activity in blood ([1]; central vein): 1.15 mKuU/ml
DNase activity in hepatic vein [1]: 1.05 mKuU/ml
cfDNA in the liver (IHC microphotographs, FIG. 4) [2]: A large amount of cfDNA
mean tumor volume ([3]; Day 17): 170 ± 13 mm^3
mean tumor volume ([3]; Day 21): 164 ± 14 mm^3
mean tumor volume ([3]; Day 24): 197 ± 17 mm^3
mean tumor volume ([3]; Day 28): 246 ± 10 mm^3
mean tumor volume ([3]; Day 31): 220 ± 8 mm^3
mean tumor volume ([3]; Day 35): 264 ± 14 mm^3
Cell free DNA in blood [4]: 241 ± 11 ng/mL

B1: RhDNase I: recombinant human DNase I in Patutina, 2011 (protein, UniProt P24855 23-282, looked up)
Deoxyribonuclease-1: LKIAAFNIQTFGETKMSNATLVSYIVQILSRYDIALVQEVRDSHLTAVGKLLDNLNQDAPDTYHYVVSEPLGRNSYKERYLFVYRPDQVSAVDSYYYDDGCEPCGNDTFNREPAIVRFFSRFTEVREFAIVPLHAAPGDAVAEIDALYDVYLDVQEKWGLEDVMLMGDFNAGCSYVRPSQWSSIRLWTSPTFQWLIPDSADTTATPTHCAYDRIVVAGMLLRGAVVPDSALPFNFQAAYGLSDQLAQAISDHYPVEVMLK
suppressed the development of metastatic disease [5]: 60-90%

B2: DNaseI: DNaseI used to treat GVHD in mice (Li, 2015) (protein, UniProt P24855 23-282, looked up)
Deoxyribonuclease-1: LKIAAFNIQTFGETKMSNATLVSYIVQILSRYDIALVQEVRDSHLTAVGKLLDNLNQDAPDTYHYVVSEPLGRNSYKERYLFVYRPDQVSAVDSYYYDDGCEPCGNDTFNREPAIVRFFSRFTEVREFAIVPLHAAPGDAVAEIDALYDVYLDVQEKWGLEDVMLMGDFNAGCSYVRPSQWSSIRLWTSPTFQWLIPDSADTTATPTHCAYDRIVVAGMLLRGAVVPDSALPFNFQAAYGLSDQLAQAISDHYPVEVMLK
treatment of GVHD in mice [6]: successful use

B3: DNase I protein (wt): recombinant wild-type DNase I protein injected IV in Example 7 (protein, UniProt P24855 23-282, looked up)
Deoxyribonuclease-1: LKIAAFNIQTFGETKMSNATLVSYIVQILSRYDIALVQEVRDSHLTAVGKLLDNLNQDAPDTYHYVVSEPLGRNSYKERYLFVYRPDQVSAVDSYYYDDGCEPCGNDTFNREPAIVRFFSRFTEVREFAIVPLHAAPGDAVAEIDALYDVYLDVQEKWGLEDVMLMGDFNAGCSYVRPSQWSSIRLWTSPTFQWLIPDSADTTATPTHCAYDRIVVAGMLLRGAVVPDSALPFNFQAAYGLSDQLAQAISDHYPVEVMLK
Average ΔCt values for universal bacterial 16S from RT-PCR, brain [7]: 27.417
Average ΔCt values for universal bacterial 16S from RT-PCR, liver [7]: 25.752
Dnase activity in blood [8]: 7.15 mKuU/ml
Average ΔCt values for brain NLRP3 from RT-PCR [9]: 17.341

— patent publication US11905522B2, “Treatment of diseases by liver expression of an enzyme which has a deoxyribonuclease (DNase) activity” (CLS THERAPEUTICS LIMITED, priority 2018, dated 2024)
